Experimental data taken from patent US4476122A, “Alkyloximes of 7-amino-thiazolyl-acetamido-cephalosporanic acids” (Roussel Uclaf, priority 1976, dated 1984).
≈ marks a conversion by molar mass, not a printed value. Read-outs that look alike come from different tables or passages of the source.

Legend:
Providencia Du 48 = assay: MIC, liquid medium dilution; type: cell-based
Procedure: (§1) The method used was a dilution of a liquid medium where a series of tubes received the same quantity of a sterile nutritive media and increasing doses of the test compounds were placed therein. Then each tube was seeded with a bacterial strain and was incubated for 24 or 48 hours at 37° C. in an oven. The increasing inhibition was determined by transillumination to determine the minimum inhibiting concentration (MIC in μg/ml) and the results are reported in the following Tables.

[1] = test system: Streptococcus pyogenes A 561; assay: MIC, liquid medium dilution; type: cell-based
Procedure: as §1

[2] = test system: Staphylococcus aureus UC 1 128 Pen-Resistant; assay: MIC, liquid medium dilution; type: cell-based
Procedure: as §1

[3] = test system: Escherichia Coli Resistant Tetracycline ATCC 11 303; assay: MIC, liquid medium dilution; type: cell-based
Procedure: as §1

[4] = test system: Proteus mirabilis (indol-) A 235; assay: MIC, liquid medium dilution; type: cell-based
Procedure: as §1

[5] = test system: Klebsiella pneumoniae 2 536 Resistant Gentamicine; assay: MIC, liquid medium dilution; type: cell-based
Procedure: as §1

[6] = test system: Proteus vulgaris (indol+) A 232; assay: MIC, liquid medium dilution; type: cell-based
Procedure: as §1

[7] = test system: Staphylococcus aureus exp. n° 54 146; assay: MIC, liquid medium dilution; type: cell-based
Procedure: as §1

[8] = test system: Staphylococcus aureus ATCC 6 538 Pen-Sensitive; assay: MIC, liquid medium dilution; type: cell-based
Procedure: as §1

[9] = test system: Escherichia Coli Sensitive Tetracycline ATCC 9 637; assay: MIC, liquid medium dilution; type: cell-based
Procedure: as §1

[10] = test system: Bacillus subtilis ATCC 6 633; assay: MIC, liquid medium dilution; type: cell-based
Procedure: as §1

[11] = test system: Streptococcus faecalis 5 432; assay: MIC, liquid medium dilution; type: cell-based
Procedure: as §1

[12] = test system: Escherichia Coli Resistant Gentamicine, Tobramycine R 55 123 D; assay: MIC, liquid medium dilution; type: cell-based
Procedure: as §1

[13] = test system: Streptococcus faecalis 99 F 74; assay: MIC, liquid medium dilution; type: cell-based; conditions: Enterococcus faecalis
Procedure: as §1

[14] = test system: Escherichia Coli Exp. TO26 B6; assay: MIC, liquid medium dilution; type: cell-based
Procedure: as §1

[15] = test system: Salmonella typhimurium 420; assay: MIC, liquid medium dilution; type: cell-based; conditions: Salmonella enterica
Procedure: as §1

[16] = test system: Klebsiella pneumoniae Exp. 52 145; assay: MIC, liquid medium dilution; type: cell-based; conditions: read-out: MIC
Procedure: as §1

[17] = test system: Serratia Resistant Gentamicine 2 532; assay: MIC, liquid medium dilution; type: cell-based
Procedure: as §1

[18] = test system: Escherichia coli (T) O26 B6; assay: Experimental infection with Escherichia coli (T) O26 B6 in mice; type: in vivo
Procedure: The products of Example 6 and 10 were studied for their activity against an experimental infection of Escherichia coli in groups of 10 male mice weighing about 22 g. The mice received an intraperitoneal injection of 0.5 ml of a 24 hour old culture in a nutritive media of Escherichia coli (T) O26 B6 of the Pasteur Institute diluted 1/5.5 with distilled water. The test product was administered subcutaneously or orally 1 hour and 5 and 24 hours after the infection and the number of dead was determined during 8 days.

[19] = test system: Klebsiella pneumonia 52,145; assay: Experimental infection with Klebsiella pneumonia in mice (D); type: in vivo
Procedure: The activity of the products of Examples 19 and 21 was studied on an experimental infection of Klebsiella pneumonia in mice. Groups of 10 male mice weighing 21.5 g received intraperitoneally 0.5 ml of a 24 hour culture in nutritive media of Klebsiella pneumonia 52,145 diluted by 1/1000 with distilled water. The products were administered subcutaneously 1,5 and 24 hours after the injection and the number of dead mice were determined using 10th days.

[20] = Enterococcus faecalis, 5432, 24 h
[21] = Enterococcus faecalis, 5432, 48 h

CO/N=C(\C(=O)NC1C(=O)N2C(C(=O)O)=C(C)CSC12)c1csc(N)n1 (stereo not shown) [Example 10, 7-[{2-(2-amino-4-thiazolyl)-2-methoxyimino}acetylamino]-3-methyl-ceph-3-eme-4-carboxylic acid]
MIC (Providencia Du 48; DU48, 24 h): 2 µg/mL (≈ 5.03 µM)
MIC (Providencia Du 48; DU48, 48 h): 5 µg/mL (≈ 12.6 µM)
MIC ([1]; A561, 24 h): 0.05 µg/mL (≈ 0.126 µM)
MIC ([1]; A561, 48 h, read-out: MIC): 0.05 µg/mL (≈ 0.126 µM)
MIC ([2]; UC1, 24 h): 40 µg/mL (≈ 101 µM)
MIC ([2]; UC1, 48 h): 40 µg/mL (≈ 101 µM)
MIC ([3]; ATCC11, 24 h): 0.2 µg/mL (≈ 0.503 µM)
MIC ([3]; ATCC11, 48 h): 0.2 µg/mL (≈ 0.503 µM)
MIC ([4]; 24 h, read-out: MIC): 0.1 µg/mL (≈ 0.252 µM)
MIC ([4]; 48 h): 0.2 µg/mL (≈ 0.503 µM)
MIC ([5]; 24 h, read-out: MIC): 0.6 µg/mL (≈ 1.51 µM)
MIC ([5]; 48 h): 2 µg/mL (≈ 5.03 µM)
MIC ([6]; 24 h): 3 µg/mL (≈ 7.55 µM)
MIC ([6]; 48 h): 20 µg/mL (≈ 50.3 µM)
MIC ([7]; 24 h): 40 µg/mL (≈ 101 µM)
MIC ([7]; 48 h): 40 µg/mL (≈ 101 µM)
MIC ([8]; ATCC6, 24 h): 20 µg/mL (≈ 50.3 µM)
MIC ([8]; ATCC6, 48 h): 40 µg/mL (≈ 101 µM)
MIC ([9]; ATCC9, 24 h, read-out: MIC): 0.6 µg/mL (≈ 1.51 µM)
MIC ([9]; ATCC9, 48 h): 0.6 µg/mL (≈ 1.51 µM)
MIC ([10]; ATCC6, 24 h): 20 µg/mL (≈ 50.3 µM)
MIC ([10]; ATCC6, 48 h): > 40 µg/mL
MIC [11, 20]: 20 µg/mL (≈ 50.3 µM)
MIC [11, 21]: > 40 µg/mL
MIC ([12]; 24 h, read-out: MIC): 0.6 µg/mL (≈ 1.51 µM)
MIC ([12]; 48 h): 0.6 µg/mL (≈ 1.51 µM)
MIC ([13]; 99F74, 24 h): 20 µg/mL (≈ 50.3 µM)
MIC ([13]; 99F74, 48 h): > 40 µg/mL
MIC ([14]; 24 h): 0.4 µg/mL (≈ 1.01 µM)
MIC ([14]; 48 h): 0.6 µg/mL (≈ 1.51 µM)
MIC ([15]; 24 h, read-out: MIC): 0.6 µg/mL (≈ 1.51 µM)
MIC ([15]; 48 h): 0.6 µg/mL (≈ 1.51 µM)
MIC ([16]; EXP.52145, 24 h): 0.1 µg/mL (≈ 0.252 µM)
MIC ([16]; EXP.52145, 48 h): 0.1 µg/mL (≈ 0.252 µM)
MIC ([17]; 24 h): 5 µg/mL (≈ 12.6 µM)
MIC ([17]; 48 h, read-out: MIC): 10 µg/mL (≈ 25.2 µM)
Mice surviving on the 8th day ([18]; per os, 3 × 0,5 mg): 2/10
Mortality after 5 J (number of dead of 10) ([18]; per os, 3 × 0,5 mg): 1
Mortality after 6 J (number of dead of 10) ([18]; per os, 3 × 0,5 mg): 2
Mortality after 21 H 30 (number of dead of 10) ([18]; per os, 3 × 0,5 mg): 2
Mortality after 47 H (number of dead of 10) ([18]; per os, 3 × 0,5 mg): 1
Mortality after 70 H (number of dead of 10) ([18]; per os, 3 × 0,5 mg): 2
Mice surviving on the 8th day ([18]; per os, 3 × 0,25 mg): 2/10
Mortality after 21 H 30 (number of dead of 10) ([18]; per os, 3 × 0,25 mg): 6
Mortality after 24 H 30 (number of dead of 10) ([18]; per os, 3 × 0,25 mg): 1
Mortality after 24 H (number of dead of 10) ([18]; per os, 3 × 0,25 mg): 1
Mice surviving on the 8th day ([18]; per os, 3 × mg): 7/10
Mortality after 21 H 30 (number of dead of 10) ([18]; per os, 3 × mg): 1
Mortality after 47 H (number of dead of 10) ([18]; per os, 3 × mg): 2
Mice surviving on the 8th day ([18]; s. c., 3 × 0,1 mg): 6/10
Mortality after 21 H 30 (number of dead of 10) ([18]; s. c., 3 × 0,1 mg): 3
Mortality after 47 H (number of dead of 10) ([18]; s. c., 3 × 0,1 mg): 1
Mice surviving on the 8th day ([18]; s. c., 3 × 0,5 mg): 8/10
Mortality after 47 H (number of dead of 10) ([18]; s. c., 3 × 0,5 mg): 2
Mice surviving on the 8th day ([18]; s. c., 3 × 0,25 mg): 7/10
Mortality after 5 H 30 (number of dead of 10) ([18]; s. c., 3 × 0,25 mg): 1
Mortality after 28 H (number of dead of 10) ([18]; s. c., 3 × 0,25 mg): 1
Mortality after 54 H (number of dead of 10) ([18]; s. c., 3 × 0,25 mg): 1

CO/N=C(/C(=O)NC1C(=O)N2C(C(=O)O)=C(C)CS[C@H]12)c1csc(N)n1 (stereo partly shown) [Example 15, 7-[{2-(2-amino-4-thiazolyl)-2-methoxyiminoacetyl}amino]-3-methyl-ceph-3-eme-4-carboxylic acid]
MIC (Providencia Du 48; DU48, 24 h): > 100 µg/mL
MIC (Providencia Du 48; DU48, 48 h): > 100 µg/mL
MIC ([1]; A561, 24 h): 2 µg/mL (≈ 5.03 µM)
MIC ([1]; A561, 48 h): 3 µg/mL (≈ 7.55 µM)
MIC ([2]; UC1, 24 h): > 100 µg/mL
MIC ([2]; UC1, 48 h): > 100 µg/mL
MIC ([3]; ATCC11, 24 h): > 100 µg/mL
MIC ([3]; ATCC11, 48 h): > 100 µg/mL
MIC ([4]; 24 h, read-out: MIC): 20 µg/mL (≈ 50.3 µM)
MIC ([4]; 48 h, read-out: MIC): 40 µg/mL (≈ 101 µM)
MIC ([5]; 24 h): > 100 µg/mL
MIC ([5]; 48 h): > 100 µg/mL
MIC ([6]; 24 h): > 100 µg/mL
MIC ([6]; 48 h): > 100 µg/mL
MIC ([7]; 24 h): > 100 µg/mL
MIC ([7]; 48 h): > 100 µg/mL
MIC ([8]; ATCC6, 24 h): > 100 µg/mL
MIC ([8]; ATCC6, 48 h): > 100 µg/mL
MIC ([9]; ATCC9, 24 h): > 100 µg/mL
MIC ([9]; ATCC9, 48 h): > 100 µg/mL
MIC ([10]; ATCC6, 24 h): > 100 µg/mL
MIC ([10]; ATCC6, 48 h): > 100 µg/mL
MIC [11, 20]: > 100 µg/mL
MIC [11, 21]: > 100 µg/mL
MIC ([12]; 24 h): > 100 µg/mL
MIC ([12]; 48 h): > 100 µg/mL
MIC ([13]; 99F74, 24 h): > 100 µg/mL
MIC ([13]; 99F74, 48 h): > 100 µg/mL
MIC ([14]; 24 h): > 100 µg/mL
MIC ([14]; 48 h): > 100 µg/mL
MIC ([15]; 24 h): > 100 µg/mL
MIC ([15]; 48 h): > 100 µg/mL
MIC ([16]; EXP.52145, 24 h): 100 µg/mL (≈ 252 µM)
MIC ([16]; EXP.52145, 48 h): 100 µg/mL (≈ 252 µM)
MIC ([17]; 24 h): > 100 µg/mL
MIC ([17]; 48 h): > 100 µg/mL

CO/N=C(\C(=O)NC1C(=O)N2C(C(=O)O)=C(CSc3nnc(C)s3)CS[C@H]12)c1csc(N)n1 (stereo partly shown) [Example 19, sodium 7-[{2-(2-amino-4-thiazolyl)-2-methoxyiminoacetyl}amino]-3-[(2-methyl-1,3,4-thiadiazol-5-yl)-thiomethyl]-ceph-3-eme-4-carboxylate]
Mice alive on the 10th day ([19]; subcutaneous, 0,1 mg): 9/10
Mortality after 6eJ (number of dead of 10) ([19]; subcutaneous, 0,1 mg): 1
Mice alive on the 10th day ([19]; subcutaneous, 0,05 mg): 6/10
Mortality after 4eJ (number of dead of 10) ([19]; subcutaneous, 0,05 mg): 1
Mortality after 5eJ (number of dead of 10) ([19]; subcutaneous, 0,05 mg): 2
Mortality after 7eJ (number of dead of 10) ([19]; subcutaneous, 0,05 mg): 1
Mice alive on the 10th day ([19]; subcutaneous, 0,5 mg): 10/10
Mice alive on the 10th day ([19]; subcutaneous, 0,25 mg): 10/10
Mice alive on the 10th day ([19]; subcutaneous, 1 mg): 10/10
